Data as given in patent publication US20230386637A1, “Polymorphisms for Predicting Treatment Response to Antipsychotic Drugs and Identifying New Drug Targets” (Northwestern University, priority 2018, published 2023).

Assays:
mouse prefrontal cortex = conditions: subeffective dose of SB269970 with subeffective dose of lurasidone; awake freely moving mice; cited from earlier work
[1] = system: acutely psychotic SCZ patients; assay: Pearl 1 and Pearl 2 six-week randomized placebo-controlled lurasidone trials, GWAS sample; format: in vivo, human
Protocol: The clinical trials, subjects, and genotyping. The two clinical trials used for this analysis are both six-week, randomized, double-blind, lurasidone, placebo-controlled, multicenter registration trials, of DSM-IV acutely psychotic SCZ patients (Meltzer et al., 2011b; Nasrallah et al., 2013b). Patients who met TRS criteria were excluded. There were four fixed-dose treatment arms: lurasidone 40 and 120 mg/day, another atypical APD, olanzapine, 15 mg/day, and placebo (Pearl 1) (Meltzer et al., 2011b) and lurasidone 40, 80, and 120 mg/day, and placebo (Pearl 2) (Nasrallah et al., 2013b). The percentages of patients who achieved the a priori determined response: >20% improvement in ΔPANSS-T, was 61% in both the Pearl 1 and 2 studies. A total of 171/63 Caucasian and 131/54 AA for lurasidone/placebo-treated patients consented to participate in the genetic study. Ethnicity was validated as described below.
Evaluation of treatment response. The primary measure of efficacy, ΔPANSS-Total, was the difference between baseline and last observation carried forward (LOCF) for those with at least one PANSS rating after baseline. Results could be pooled across drug dosage arms because clinical change was not dose related (data not presented). The intention-to-treat (ITT) population included 157, 73, and 156 patients who received 40, 80, and 120 mg/day doses of lurasidone, respectively. Subjects within the 30th percentiles for greatest or least improvement in PANSS-Total (referred to as best and worst responders, hereafter) were included in a secondary analysis as previously done for iloperidone (Lavedan et al., 2009).
Population stratification. […] Population stratification and separation was employed throughout the following analyses. This process yielded 234 Caucasians, 171 and 63 in the lurasidone- and placebo-treated groups, respectively. There were […], 131 and 54 in the lurasidone- and placebo groups, respectively. Adjustment using the top three PCs within each ethnic group was applied to the association tests. The QQ plots indicated no marked deviations of the observed distributions from the expected null distributions with genome inflation factor=1.00 for both ethnic groups (FIG. 1c, d). Both Kolmogorov-Smimov and Shapiro-Wilk tests indicated ΔPANSS-T followed the normal distribution with skewness and kurtosis indices between-1 and +1. Therefore, no subjects had to be excluded from the analysis.

[2] = system: acutely psychotic SCZ patients; assay: PEARL 1, 2 and PEARL 3 six-week placebo-controlled lurasidone trials, GWAS subjects of the meta-analysis; format: in vivo, human
Text: Participants. The three clinical trials (Loebel et al., 2013a; Meltzer et al., 2011a; Nasrallah et al., 2013) used in this analysis were six-week, randomized, double-blind, placebo-controlled, multicenter registration trials, of DSM-IV acutely psychotic SCZ patients. The primary measure of efficacy, ΔPANSS-TOT, was the difference between baseline and last observation carried forward (LOCF) for those with at least one PANSS rating at, or after two weeks of treatment, (ΔPANSS-TOTLOCF6WK=PANSSTOTLOCF6WK-PANSS-TOTBaseline). The overall mean percentage of patients who achieved a priori determined response: ≥20% improvement in ΔPANSS-TOTLOCF6WK, was 61% in the PEARL 1, 2 and 3 studies. A total of 587 subjects with valid treatment response data and verified race from two ethnic populations, EUR and AFR, gave written informed consent to participate in genetics study (368 of 545 (67.5% with EUR ancestry and 219 of 403 (54.3% with AFR ancestry). These trials included a small number of patients randomized to treatment with olanzapine (PEARL 1) or quetiapine (PEARL 3). There were too few subjects with genetic data to include them as a separate group in this analysis.
PEARL 3 was considered an independent dataset due to a significant difference in PANSS-TOTBaseline, inclusion of a higher dose of lurasidone (160 mg/d), and an unequal variance, compared to PEARL 1/2, in ΔPANSS-TOTLOCF6WK by Leven test (Table 1). Samples from the corresponding placebo groups of all three trials were pooled together due to a relatively small sample size per trial and absence of significant differences in demographic and clinical data. Thus, three groups (PEARL 1+2, PEARL 3 and Placebo) per ethnicity were independently examined for quality control (QC), PCA for genetic architectures, and GWAS analyses before determining summary statistics at the individual SNP level. Both Kolmogorov-Smimov and Shapiro-Wilk tests indicated ΔPANSS-TOTLOCF6WK followed a normal distribution with skewness and kurtosis indices between −1 and +1. Therefore, no subjects were excluded from the analysis.

[3] = in vivo; cited from earlier work
[4] = African ancestry, Pearl 1, 2, n=124
[5] = African ancestry, Pearl 3, n=34
[6] = European ancestry, Pearl 1, 2, n=165
[7] = European ancestry, Pearl 3, n=99

## CC1CCN(CC[C@H]2CCCN2S(=O)(=O)c2cccc(O)c2)CC1 [SB269970]
Mouse prefrontal cortex
  effect on lurasidone-induced dopamine efflux: potentiated

## O=C1[C@@H]2[C@H]3CC[C@H](C3)[C@@H]2C(=O)N1C[C@@H]1CCCC[C@H]1CN1CCN(c2nsc3ccccc23)CC1 [lurasidone]
[1]; African-Americans, n=131
  PANSS anxiety/depression Change (LOCP): −3.3 ± 4.1
  PANSS disorganization Change (LOCF): −4.0 ± 4.4
  PANSS excited Change (LOCF): −1.2 ± 4.0
  PANSS negative Change (LOCF): −4.2 ± 4.6
  PANSS positive Change (LOCF): −5.3 ± 4.4
  PANSS total Change (LOCF): −18.0 ± 16.3
[1]; Caucasians, n=171
  PANSS anxiety/depression Change (LOCP): −2.1 ± 4.2
  PANSS disorganization Change (LOCF): −4.0 ± 4.2
  PANSS excited Change (LOCF): −1.4 ± 3.7
  PANSS negative Change (LOCF): −3.3 ± 4.8
  PANSS positive Change (LOCF): −5.1 ± 4.9
  PANSS total Change (LOCF): −15.9 ± 17.0
[1]; Caucasians, n=171, lurasidone 40/80/120 mg, baseline to LOCF, mean ± SD
  CGI Change (LOCF): −1.0 ± 1.0
[1]; both the Pearl 1 and 2 studies
  percentages of patients who achieved the a priori determined response: >20% improvement in ΔPANSS-T: 61%
[2]; [4]
  % change of Psychopathology PANSE_NEG: −13.44(22.75) %
  % change of Psychopathology PANSS_POS: −25.80(24.91) %
  % change of Psychopathology PANSS_TOT: −16.55(17.79) %
  Δ change of Psychopathology PANSS_NEG: −3.26(4.82)
  Δ change of Psychopathology PANSS_POS: −5.15(4.93)
[2]; African ancestry, Pearl 1, 2, n=124, lurasidone 40/80/120 mg/d
  Δ change of Psychopathology PANSS_TOT: −15.88(16.97)
[2]; [5]
  % change of Psychopathology PANSE_NEG: −15.66(22.26) %
  % change of Psychopathology PANSS_POS: −30.04(22.51) %
  % change of Psychopathology PANSS_TOT: −22.47(19.05) %
  Δ change of Psychopathology PANSS_NEG: −3.85(4.88)
  Δ change of Psychopathology PANSS_POS: −5.71(4.35)
[2]; African ancestry, Pearl 3, n=34, lurasidone 80/160 mg/d
  Δ change of Psychopathology PANSS_TOT: −21.95(18.15)
[2]; [6]
  % change of Psychopathology PANSS_NEG: −13.44(22.75) %
  % change of Psychopathology PANSS_POS: −25.80(24.91) %
  % change of Psychopathology PANSS_TOT: −16.55(17.79) %
  Δ change of Psychopathology PANSS_NEG: −3.26(4.82)
  Δ change of Psychopathology PANSS_POS: −5.15(4.93)
[2]; European ancestry, Pearl 1, 2, n=165, lurasidone 40/80/120 mg/d
  Δ change of Psychopathology PANSS_TOT: −15.88(16.97)
[2]; [7]
  % change of Psychopathology PANSS_NEG: −15.66(22.26) %
  % change of Psychopathology PANSS_POS: −30.04(22.51) %
  % change of Psychopathology PANSS_TOT: −22.47(19.05) %
  Δ change of Psychopathology PANSS_NEG: −3.85(4.88)
  Δ change of Psychopathology PANSS_POS: −5.71(4.35)
[2]; European ancestry, Pearl 3, n=99, lurasidone 80/160 mg/d
  Δ change of Psychopathology PANSS_TOT: −21.95(18.15)
[2]; PEARL 1, 2 and 3 studies
  overall mean percentage of patients who achieved a priori determined response: ≥20% improvement in ΔPANSS-TOTLOCF6WK: 61%
[3]
  side effect profile: relatively benign side effect profile
